Data set [1] concerns DLBCL cells. Description: Ferroptosis, Bodipy-C11 staining and ferrostatin-1 rescue. The class given is cell-based, human.
The subject of data set [2] is DB. In words: Cell viability assay (CellTiter-Glo, ATP quantification). As to conditions: cell viability by ATP quantification, read-out: 50% inhibitory concentration (IC50). Type of data set: cell-based, human. How it is done: (§1) FIG. 3: Iron chelators and Ironomycin inhibit DLBCL cell growth DLBCL cells were incubated with different concentrations of iron chelators or vehicle for 96H. Inhibitory concentration 50% (IC50) was calculated with concentration-response curve after treatment with Deferoxamin (A), Deferasirox, (B) and Ironomycin (C). Cell viability was examined using quantification of ATP assay. Data are expressed as mean percentage+/−SEM of at least three independent experiments performed in sixplicate.
(§2) The 16 DLBCL cell lines (U2932, OCI-LY-3, NU-DHL-1, OCI-LY-19, DB, SUDHL4, OCILY1, SUDHL5, DOHH2, SUDHL10, HT, RI-1, SU-DHL-6, NUDUL-1, WSU-DLCL-2 and OCI-LY-7) were purchased from the DSMZ (Leibniz-Institut DSMZ—Deutsche Sammlung von Mikroorganismen und Zellkulturen GmbH, Germany). They were maintained in RPMI-1640 (Gibco, Invitrogen), supplemented with 10% fetal bovine serum (PAA laboratory GmbH) for U2932, SUDHL-4, HT, DOHH2, SUDHL-10, RI-1, WSU-DLCL-2 cell lines, 20% FBS OCI-LY3, DB, SUDHL-5, NUDHL-1, SU-DHL-6, NUDUL-1 cell lines. OCI-LY1 and OCI-LY7 were cultured in IMDM (Gibco, Invitrogen), supplemented with 20% fetal bovine serum and OCI-LY19 was cultured in MEM alpha modified (Gibco, Invitrogen), supplemented with 20% fetal bovine serum. Cultures were maintained at 37° C. in a humidified atmosphere with 5% CO2.
(§3) DLBCL-derived cell lines were cultured for 4 days in 96-well flat-bottom microtiter plates in RPMI 1640 medium, 10% or 20% FCS (control medium) in the presence of various compounds. The number of viable cells in culture was determined using the CellTiter-Glo Luminescent Cell Viability Assay from Promega, Madison, Wis., USA using a Centro LB 960 luminometer (Berthold Technologies, Bad Wildbad, Germany).
(§4) This test is based on quantitation of the intracellular ATP present, which signals the presence of metabolically active cells. Data are expressed as the mean percentage of six replicates, normalized to the untreated control.
On the technique in general: ATP-based viability assays read luminescence as a measure of living cells.

The test system of data set [3] is OCI-LY3. The data set is described as above. Type of data set: cell-based, human. As to conditions: cell viability by ATP quantification, read-out: 50% inhibitory concentration (IC50). How it is done:
as §1, §2, §3, §4

Data set [4] has as its system SUDHL-5. Described as above. Type of data set: cell-based, human. As to conditions: SUDHL-5, 96H, cell viability by ATP quantification, read-out: 50% inhibitory concentration (IC50). The method, then:
as §1, §2, §3, §4

For data set [5], the system named is U2932. The data set is described as above. The class given is cell-based, human. As to conditions: cell viability by ATP quantification, read-out: 50% inhibitory concentration (IC50). How it is done:
as §1, §2, §3, §4

The test system of data set [6] is OCI-LY3 and DB cell lines. From the text:
The inventors further investigated the effect of Iron supplementation on the cell death induced by these treatments. Iron chelators concentrations were chosen according the maximal plasmatic concentration achievable in the patient (Nisbet-Brown et al., 2003).
Chaetocin was used as positive control of ROS production inhibited by GSH (Isham et al., 2007).

Each structure is given as a SMILES string. Like-named read-outs stand apart in the source and are kept apart here.

On to `CCOC(=O)c1ccc(NC2CCCCC2)c(N)c1` [Ferrostatin, Ferrostatin-1, reference compound], for which, in data set [1], the “effect on erastin (ferroptosis inductor, positive control)” value is “abrogated the effects of erastin” and the “toxicity in DLBCL cells” value is “did not demonstrated significant toxicity”.

With `CC(=O)N(O)CCCCCNC(=O)CCC(=O)N(O)CCCCCNC(=O)CCC(=O)N(O)CCCCCN` [Deferoxamine], the IC50 came out at 3.25 µM in data set [2] (96H); 3.24 µM in data set [2] (Homo sapiens, 96 h); 3.75 µM in data set [3] (Homo sapiens, OCI-Ly3, 96 h); 3.75 µM in data set [3] (OCI-LY3, 96H); 1.55 µM in data set [4] (Homo sapiens, SU-DHL-5, 96 h); 1.55 µM in data set [4]. Moreover, the IC50 turned out to be 2.42 µM in data set [5] (Homo sapiens, U2932, 96 h) and 2.28 µM in data set [5] (U2932, 96H). In data set [6], the “effect of iron supplementation on drug-induced apoptosis / cytotoxicity” value is on record as “significantly inhibited”.

With `O=C(O)c1ccc(-n2nc(-c3ccccc3O)nc2-c2ccccc2O)cc1` [Deferasirox], the IC50 amounted to 13.9 µM in data set [2] (96H); 13.9 µM in data set [2] (Homo sapiens, 96 h); 9.5 µM in data set [3] (Homo sapiens, OCI-Ly3, 96 h); 9.5 µM in data set [3] (OCI-LY3, 96H); 1.48 µM in data set [4] (Homo sapiens, SU-DHL-5, 96 h); 1.48 µM in data set [4]. The IC50 came to 4.79 µM in data set [5] (Homo sapiens, U2932, 96 h) and 4.79 µM in data set [5] (U2932, 96H). Further, in data set [6], the “effect of iron supplementation on drug-induced apoptosis / cytotoxicity” value was “significantly inhibited”.

The values are drawn from patent US20230220480A1, “IRON-SCORE AND IN VITRO METHOD FOR IDENTIFYING HIGH RISK DLBCL SUBJECTS AND THERAPEUTIC USES AND METHODS” (CENTRE NATIONAL DE LA RECHERCHE SCIENTIFIQUE (CNRS), priority 2019, published 2023).
